Laboratory results published in ChEMBL document CHEMBL5316381, “Discovery of [1,2,3]Triazolo[4,5-c]quinoline Derivatives as a New Class of Ataxia-Telangiectasia Mutated Kinase Inhibitors” (ACS Med Chem Lett, 2023).
pIC50: −log10 of the molar value.

Biological target: Serine-protein kinase ATM (Homo sapiens, UniProt Q13315)
Assay: Inhibition of ATM (unknown origin) using GST-cMyc-p53 as substrate incubated for 30 mins in presence of Mg/ATP mix by HTRF-based analysis

Chain of Serine-protein kinase ATM (Q13315 whole entry): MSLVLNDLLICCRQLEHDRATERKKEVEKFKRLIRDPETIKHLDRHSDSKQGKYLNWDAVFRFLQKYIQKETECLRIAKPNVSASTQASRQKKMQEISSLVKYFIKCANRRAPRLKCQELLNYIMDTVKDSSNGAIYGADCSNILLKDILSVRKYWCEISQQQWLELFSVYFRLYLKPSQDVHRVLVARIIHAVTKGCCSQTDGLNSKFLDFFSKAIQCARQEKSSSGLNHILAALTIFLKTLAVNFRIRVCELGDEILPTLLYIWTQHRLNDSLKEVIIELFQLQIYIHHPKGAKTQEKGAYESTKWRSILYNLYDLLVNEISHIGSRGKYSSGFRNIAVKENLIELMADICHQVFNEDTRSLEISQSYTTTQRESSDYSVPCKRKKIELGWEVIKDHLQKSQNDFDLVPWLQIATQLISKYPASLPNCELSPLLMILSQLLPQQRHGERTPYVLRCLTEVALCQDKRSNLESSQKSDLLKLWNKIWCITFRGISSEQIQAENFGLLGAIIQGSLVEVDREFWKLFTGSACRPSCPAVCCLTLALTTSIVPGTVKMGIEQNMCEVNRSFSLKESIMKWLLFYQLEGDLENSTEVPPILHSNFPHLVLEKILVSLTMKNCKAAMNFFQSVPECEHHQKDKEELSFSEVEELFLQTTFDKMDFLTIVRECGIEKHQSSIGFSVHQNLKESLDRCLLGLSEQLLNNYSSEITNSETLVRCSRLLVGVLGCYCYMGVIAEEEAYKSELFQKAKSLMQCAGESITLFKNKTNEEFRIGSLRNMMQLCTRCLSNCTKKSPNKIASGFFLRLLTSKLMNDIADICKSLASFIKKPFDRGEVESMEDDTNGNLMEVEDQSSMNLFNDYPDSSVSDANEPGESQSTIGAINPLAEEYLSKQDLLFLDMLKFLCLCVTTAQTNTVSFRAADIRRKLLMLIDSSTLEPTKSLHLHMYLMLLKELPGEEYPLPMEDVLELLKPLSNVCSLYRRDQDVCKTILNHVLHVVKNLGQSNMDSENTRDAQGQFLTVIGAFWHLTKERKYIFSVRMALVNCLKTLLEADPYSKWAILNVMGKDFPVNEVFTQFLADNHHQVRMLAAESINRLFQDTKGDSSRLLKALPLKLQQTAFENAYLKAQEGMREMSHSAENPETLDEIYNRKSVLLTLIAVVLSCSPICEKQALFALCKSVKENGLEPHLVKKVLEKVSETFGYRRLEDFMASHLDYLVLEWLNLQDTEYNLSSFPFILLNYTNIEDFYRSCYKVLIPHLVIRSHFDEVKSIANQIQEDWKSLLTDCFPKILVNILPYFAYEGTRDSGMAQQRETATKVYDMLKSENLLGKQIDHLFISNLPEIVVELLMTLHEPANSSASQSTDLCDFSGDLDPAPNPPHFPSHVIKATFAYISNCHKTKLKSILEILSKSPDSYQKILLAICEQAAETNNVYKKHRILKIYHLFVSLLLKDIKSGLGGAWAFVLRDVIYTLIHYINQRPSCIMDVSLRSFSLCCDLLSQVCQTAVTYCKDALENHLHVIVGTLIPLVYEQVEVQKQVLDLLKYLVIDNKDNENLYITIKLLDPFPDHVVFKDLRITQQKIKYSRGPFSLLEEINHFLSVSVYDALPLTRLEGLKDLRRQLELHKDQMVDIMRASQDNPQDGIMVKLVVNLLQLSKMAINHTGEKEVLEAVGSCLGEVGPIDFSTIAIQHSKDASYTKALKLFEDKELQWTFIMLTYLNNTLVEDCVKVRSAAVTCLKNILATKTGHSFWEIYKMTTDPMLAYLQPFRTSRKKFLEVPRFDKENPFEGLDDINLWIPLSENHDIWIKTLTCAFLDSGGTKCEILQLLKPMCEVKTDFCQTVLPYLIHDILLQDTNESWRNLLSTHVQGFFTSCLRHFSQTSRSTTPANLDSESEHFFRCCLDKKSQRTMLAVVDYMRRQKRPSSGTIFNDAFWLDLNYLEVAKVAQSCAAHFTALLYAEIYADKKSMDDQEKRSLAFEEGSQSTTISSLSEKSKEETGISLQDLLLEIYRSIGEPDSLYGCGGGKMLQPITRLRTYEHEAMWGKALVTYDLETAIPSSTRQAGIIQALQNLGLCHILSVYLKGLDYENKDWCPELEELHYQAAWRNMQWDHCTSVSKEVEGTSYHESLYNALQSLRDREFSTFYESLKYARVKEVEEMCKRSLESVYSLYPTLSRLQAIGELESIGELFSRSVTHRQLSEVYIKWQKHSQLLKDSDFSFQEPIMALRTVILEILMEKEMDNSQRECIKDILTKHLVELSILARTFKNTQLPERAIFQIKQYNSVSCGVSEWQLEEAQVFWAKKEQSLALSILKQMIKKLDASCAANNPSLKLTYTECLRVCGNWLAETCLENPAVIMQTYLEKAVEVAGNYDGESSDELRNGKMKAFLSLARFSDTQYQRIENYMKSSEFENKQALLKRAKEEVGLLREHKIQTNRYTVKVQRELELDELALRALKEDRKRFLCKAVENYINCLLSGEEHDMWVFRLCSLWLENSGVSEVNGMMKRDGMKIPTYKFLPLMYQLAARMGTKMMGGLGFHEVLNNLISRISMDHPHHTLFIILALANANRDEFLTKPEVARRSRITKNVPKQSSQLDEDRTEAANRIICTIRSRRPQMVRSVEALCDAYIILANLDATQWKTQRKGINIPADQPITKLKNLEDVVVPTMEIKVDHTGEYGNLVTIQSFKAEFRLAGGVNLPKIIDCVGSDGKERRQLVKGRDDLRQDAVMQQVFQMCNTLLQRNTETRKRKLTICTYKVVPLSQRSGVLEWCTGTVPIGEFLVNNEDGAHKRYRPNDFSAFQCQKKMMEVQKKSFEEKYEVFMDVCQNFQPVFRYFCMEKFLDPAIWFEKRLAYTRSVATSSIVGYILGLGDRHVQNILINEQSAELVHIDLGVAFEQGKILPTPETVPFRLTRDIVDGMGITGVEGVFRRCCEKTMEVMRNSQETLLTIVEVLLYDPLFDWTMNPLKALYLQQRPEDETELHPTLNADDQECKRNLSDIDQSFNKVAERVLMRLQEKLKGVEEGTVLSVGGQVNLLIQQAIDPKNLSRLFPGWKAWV

Row | SMILES | pIC50
1 | C[C@@H](c1cccc(F)c1)n1nnc2cnc3ccc(-c4ccc(N)nc4)cc3c21 | 7.28
2 | C[C@H](c1ccccc1)n1nnc2cnc3ccc(-c4ccc(O)nc4)cc3c21 | 7.60
3 | C[C@H](c1ccccc1)n1nnc2cnc3ccc(-c4ccc(OCCCN5CCCCC5)nc4)cc3c21 | 8.70
4 | C[C@H](c1ccccc1)n1nnc2cnc3ccc(-c4ccc(OCCCN5CCN(C)CC5)nc4)cc3c21 | 8.70
5 | C[C@H](c1ccccc1)n1nnc2cnc3ccc(-c4cnc(N(C)C)nc4)cc3c21 | 6.32
6 | COc1ccc(-c2ccc3ncc4nnn([C@H](C)c5ccccc5)c4c3c2)cn1 | 7.89
7 | Nc1ccc(-c2ccc3ncc4nnn(Cc5ccccc5)c4c3c2)cn1 | 8.10
8 | COc1cccc([C@@H](C)n2nnc3cnc4ccc(-c5ccc(N)nc5)cc4c32)c1 | 8.30
9 | C[C@H](c1ccccc1)n1nnc2cnc3ccc(-c4cnc(N)nc4)cc3c21 | 7.82
10 | C[C@H](c1ccccc1)n1nnc2cnc3ccc(-c4ccc(OCCN(C)C)nc4)cc3c21 | 7.72
11 | C[C@H](c1ccccc1)n1nnc2cnc3ccc(-c4cccnc4)cc3c21 | 8.05
12 | C[C@H](c1ccccc1)n1nnc2cnc3ccc(-c4ccc(N)cc4)cc3c21 | 7.82
13 | C[C@@H](c1ccccc1)n1nnc2cnc3ccc(-c4ccc(N)nc4)cc3c21 | 7.35

More lines, now with the values ahead:

Row | pIC50 | SMILES
14 | 8.05 | CC[C@H](c1ccccc1)n1nnc2cnc3ccc(-c4ccc(N)nc4)cc3c21
15 | 6.61 | Cn1nnc2cnc3ccc(-c4ccc(N)nc4)cc3c21
16 | 7.15 | C[C@H](c1ccccc1)n1nnc2cnc3ccc(-c4ccc(N5CCCC5)nc4)cc3c21
17 | 8.70 | C[C@H](c1ccccc1)n1nnc2cnc3ccc(-c4ccc(OCCCN5CCCC5)nc4)cc3c21
18 | 7.66 | C[C@H](c1ccccc1)n1nnc2cnc3ccc(-c4ccnc(N)c4)cc3c21
19 | 8.22 | C[C@H](c1ccccc1)n1nnc2cnc3ccc(-c4ccc(N5CCN(C)CC5)nc4)cc3c21
